In test [1] the target is T1, ShHTL7 (Striga hermonthica, UniProt A0A0M3PNA2).
T1 sequence (A0A0M3PNA2 1-271): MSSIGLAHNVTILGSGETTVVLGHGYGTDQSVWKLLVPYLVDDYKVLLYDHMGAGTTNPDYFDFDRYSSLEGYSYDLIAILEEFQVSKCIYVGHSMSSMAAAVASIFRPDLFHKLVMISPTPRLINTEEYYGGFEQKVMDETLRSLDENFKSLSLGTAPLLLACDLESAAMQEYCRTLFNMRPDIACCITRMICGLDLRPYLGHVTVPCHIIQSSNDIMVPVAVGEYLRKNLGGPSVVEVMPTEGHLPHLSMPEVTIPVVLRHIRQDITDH
The test can be described thus: In vitro hydrolysis assay, ShHTL7. Type of test: biochemical. To be noted: 10 µM substrate, 50 µg ml^−1 protein, 37 °C, HPLC. From the text: Striga hermonthica ShHTL7 cDNA was used, GenBank accession KR013127, kindly provided by Tsuyoshi Ota, The University of Tokyo, Japan. Arabidopsis D14 (AtD14) cDNA, GenBank accession AY097402, was synthesized and cloned into pUC57 (GenScript). ShHTL7 and OsD14 cDNAs were amplified by RT-PCR using the primers shown in Supplementary Table S2, digested with BamHI and XhoI, and ligated into BamHI/XhoI-digested pGEX-6P-1 expression vector (GE Healthcare). […] The plasmids were then transformed into E. coli BL21 (DE3) cells. The cells were grown in LB broth containing ampicillin ([…]), incubated at 37 °C until OD600 of 0.6 and induced with 0.1 mM isopropyl-β-D-thiogalactopyranoside at 16 °C for 16 h. Harvested cells were resuspended in lysis buffer: 50 mM Tris–HCl (pH 8.0), 200 mM NaCl, 0.5% Tween-20 and 2 mM dithiothreitol (DTT). After sonication on ice for 10 min, the lysate was centrifuged at 75 000 g for 30 min at 4 °C. Supernatant was allowed to bind to glutathione–sepharose beads (GE Healthcare) for 2 h at 4 °C, washed 3 times with buffer (50 mM Tris-HCl (pH 8.0), 200 mM NaCl, 2 mM DTT), and eluted by cleaving the GST moiety with PreScission™ Protease (GE Healthcare) at 4 °C overnight. Eluted protein was further purified by gel filtration using a HiLoad 16/60 Superdex200 prep grade column (GE Healthcare) on an AKTA prime system (GE Healthcare) in gel filtration buffer (10 mM HEPES pH 7.5, 50 mM KCl and 2 mM DTT). […] Purified protein was concentrated using an Amicon 10K filter unit (Merck Millipore) and stored at −80 °C until use. A similar expression and purification protocol was followed for OsD14 protein, except that OsD14 was eluted from glutathione resins using 0.2 mM reduced glutathione (Sigma-Aldrich) without cutting the GST tag.
The hydrolysis of GR24 and MPs by ShHTL7/OsD14 was performed in a total volume of 0.5 ml of phosphate-buffered saline containing 10 µM of substrate. Purified ShHTL7/OsD14 was added at a concentration of 50 µg ml^−1 and incubated for the indicated time at 37 °C. After adding 1-indanol (10 µl of a 2.5 mg ml^−1 solution in methanol), as internal standard, solutions were filtered and transferred to HPLC vials. […] The column was operated at 30 °C with a flow rate of 0.2 ml min^−1. Eluted compounds were detected using a diode array detector. Amounts of remaining substrates were determined by calculating corresponding peaks, in comparison with an internal standard.

Test [2] relates to rice d10 mutant. In words: Rice micro tillering bioassay, d10 mutant. Type of test: in vivo. To be noted: for EC50: Oryza sativa, read-out: EC50 for tillering inhibition of the rice d10 mutant. Here is the method:
Rice seeds (WT, d3, d10) were surface-sterilized by washing with 70% ethanol for 1 min and then with 2.5% sodium hypochlorite for 15 min. Seeds were then rinsed thoroughly with sterile MilliQ water and incubated in water for 2 d at 30 °C in the dark. Pre-germinated seeds were transferred to filter papers containing half-strength MS medium in 90 mm Petri dishes and incubated at 30 °C under fluorescent white light (130–180 μmol m^−2 s^−1) for 1 week. Seven-day-old seedlings were transferred to 50 ml falcon tubes (one seedling per tube) containing modified half-strength Hoagland nutrient solution and grown in greenhouse. Plants were treated with MPs at 2.5 μM to 2.5 × 10^–7 μM, using GR24 as positive control. The compounds were applied six times, twice a week. Number of tillers per plant, plant height and fresh biomass were measured at final harvest.
Statistical analyses were carried out using the statistical software package R (version 3.2.2). Dose–response curves and half-maximum effective concentrations (EC50) were calculated to determine optimum amount of MPs. The synthetic strigolactone analog GR24 was used as reference to estimate efficacy of selected compounds. EC50 and estimated response were calculated using the drc package (https://cran.r-project.org/web/packages/drc/) with a four parameter logistic curve (dose–response curve) ([Ritz and Streibig, 2005]).

The test system of test [3] is Arabidopsis seedlings. The test can be described thus: Arabidopsis primary root length. In kind it is in vivo. To be noted: 1.0 μM. The procedure: Sterilized Arabidopsis seeds were sown on half-strength MS (with 0.5% sucrose+1% agar, 0.5 g l^−1 MES, pH 5.7) plates supplemented with GR24 or MPs (at 1.0 μM). Plates were stored at 4 °C in darkness for 3 d and then vertically grown at 22 °C in a Percival incubator under long day condition (16 h at 22 °C/8 h at 16 °C day/night, 60% relative humidity, 60–70 μmol m^−2 s^−1 white light) for 8 d. For determining the effect on lateral root density and primary root length, at least 30 seedlings were measured using ImageJ software after scanning roots.

From article PMC5913645, “Methyl phenlactonoates are efficient strigolactone analogs with simple structure” (Journal of Experimental Botany, 2017) come the findings set out here.

The EC50 is the concentration that produces a half-maximal response.

The structures appear in SMILES notation. “Also recorded” adds a separate entry of the source.

In the case of `CC1=CC(OC=C2C(=O)OC3c4ccccc4CC23)OC1=O` (stereo not shown) [GR24, reference compound], the “hydrolysis rate by ShHTL7 (rank order)” value in test [1] was “highest hydrolysis rates with MP1, followed by MP7, GR24, and finally MP3”. Besides, in test [2] (2.5 μM, hydroponic culture, Mock four tillers per plant), the “number of tillers per plant, d10 mutant” value was “one”. Further, the EC50 in test [2] worked out at 48.3 nM.
Turning to `COC(=O)/C(=C/OC1C=C(C)C(=O)O1)c1ccc([N+](=O)[O-])cc1` (stereo not shown) [MP1, (E)-methyl 3-(4-methyl-5-oxo-2,5-dihydrofuran-2-yloxy)-2-(4-nitrophenyl)acrylate], the “hydrolysis rate by ShHTL7 (rank order)” value in test [1] was “highest hydrolysis rates with MP1, followed by MP7, GR24, and finally MP3”. In test [2], the EC50 came out at 242 nM. For the same compound, the “increase in primary root length” value in test [3] was “most active compound”.
With `COC(=O)/C(=C/OC1C=C(C)C(=O)O1)c1ccccc1` (stereo not shown) [MP3, (E)-methyl 3-(4-methyl-5-oxo-2,5-dihydrofuran-2-yloxy)-2-phenylacrylate], the “hydrolysis rate by ShHTL7 (rank order)” value in test [1] is “highest hydrolysis rates with MP1, followed by MP7, GR24, and finally MP3”. In addition, the “growth, senescence symptoms and biomass of rice seedlings” value in test [2] (2.5 μM) is “stunted the growth and caused senescence symptoms; also recorded: growth retardation and senescence”. For the same compound, the EC50 in test [2] amounted to 2.98 nM. Besides, the “increase in primary root length” value in test [3] is “weaker activity than GR24 and MP8”.
For `COC(=O)/C(=C/OC1C=C(C)C(=O)O1)c1ccc(Cl)cc1` (stereo not shown) [MP7], in test [1], the “hydrolysis rate by ShHTL7 (rank order)” value is “highest hydrolysis rates with MP1, followed by MP7, GR24, and finally MP3”. The EC50 in test [2] worked out at 25.4 nM. The “increase in primary root length” value in test [3] is “more efficient than GR24”.
